Test results as given in publication PMC11851430, “Workflow for E3 Ligase Ligand Validation for PROTAC Development” (ACS Chemical Biology, 2025).

Columns and labels:
EPHA2A = target: T1, EPHA2A (Homo sapiens, UniProt P29317); assay: DSF assay; type: binding; conditions: 20 µM compound
T1 construct: purchased in-house DSF panel (SGC-style construct names; the trailing A/B is a construct suffix)
T1 sequence (P29317 596-900): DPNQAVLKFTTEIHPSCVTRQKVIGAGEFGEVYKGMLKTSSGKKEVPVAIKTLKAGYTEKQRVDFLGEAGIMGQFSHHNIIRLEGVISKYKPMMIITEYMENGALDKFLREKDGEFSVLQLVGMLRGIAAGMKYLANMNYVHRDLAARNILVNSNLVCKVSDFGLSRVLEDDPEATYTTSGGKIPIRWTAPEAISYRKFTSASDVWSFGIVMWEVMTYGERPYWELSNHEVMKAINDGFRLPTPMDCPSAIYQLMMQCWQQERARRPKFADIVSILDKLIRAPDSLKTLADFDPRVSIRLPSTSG

EPHA7A = target: T2, EPHA7A (Homo sapiens, UniProt Q15375); assay: DSF assay; type: binding; conditions: 20 µM compound
T2 construct: purchased in-house DSF panel (SGC-style construct names; the trailing A/B is a construct suffix)

FGFR1B = target: T3, FGFR1B (Homo sapiens, UniProt P11362); assay: DSF assay; type: binding; conditions: 20 µM compound
T3 construct: purchased in-house DSF panel (SGC-style construct names; the trailing A/B is a construct suffix)

VRK1A = target: T4, VRK1A (Homo sapiens, UniProt Q99986); assay: DSF assay; type: binding; conditions: 20 µM compound
T4 construct: purchased in-house DSF panel (SGC-style construct names; the trailing A/B is a construct suffix)
T4 sequence (Q99986 1-396): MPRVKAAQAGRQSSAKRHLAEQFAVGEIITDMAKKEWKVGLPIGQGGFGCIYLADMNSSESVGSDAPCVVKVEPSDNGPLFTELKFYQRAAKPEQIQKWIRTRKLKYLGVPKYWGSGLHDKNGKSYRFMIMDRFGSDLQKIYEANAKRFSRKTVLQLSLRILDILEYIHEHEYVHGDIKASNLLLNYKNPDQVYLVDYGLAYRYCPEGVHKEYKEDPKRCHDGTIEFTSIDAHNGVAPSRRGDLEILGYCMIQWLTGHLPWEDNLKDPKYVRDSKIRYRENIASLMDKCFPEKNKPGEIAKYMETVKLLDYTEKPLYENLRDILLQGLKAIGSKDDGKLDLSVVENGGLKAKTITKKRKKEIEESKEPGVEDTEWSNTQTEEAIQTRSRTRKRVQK

[1] = target: T5, kinase protein levels in MCF-7 cells (Homo sapiens, UniProt A0A096LP01); assay: TMT-labeled quantitative proteomics; type: cell-based; conditions: protein LINC00493
T5 construct: endogenous in cells; host or cells: MCF-7

[2] = system: kinase protein levels in MCF-7 cells; assay: TMT-labeled quantitative proteomics; type: cell-based, human
full-length AAK1 = full-length AAK1 (Homo sapiens, UniProt Q2M2I8); assay: NanoBRET target engagement assay, intact and permeabilized cells; conditions: NanoBRET, mean of duplicates
Sequence of full-length AAK1 (Q2M2I8 whole entry): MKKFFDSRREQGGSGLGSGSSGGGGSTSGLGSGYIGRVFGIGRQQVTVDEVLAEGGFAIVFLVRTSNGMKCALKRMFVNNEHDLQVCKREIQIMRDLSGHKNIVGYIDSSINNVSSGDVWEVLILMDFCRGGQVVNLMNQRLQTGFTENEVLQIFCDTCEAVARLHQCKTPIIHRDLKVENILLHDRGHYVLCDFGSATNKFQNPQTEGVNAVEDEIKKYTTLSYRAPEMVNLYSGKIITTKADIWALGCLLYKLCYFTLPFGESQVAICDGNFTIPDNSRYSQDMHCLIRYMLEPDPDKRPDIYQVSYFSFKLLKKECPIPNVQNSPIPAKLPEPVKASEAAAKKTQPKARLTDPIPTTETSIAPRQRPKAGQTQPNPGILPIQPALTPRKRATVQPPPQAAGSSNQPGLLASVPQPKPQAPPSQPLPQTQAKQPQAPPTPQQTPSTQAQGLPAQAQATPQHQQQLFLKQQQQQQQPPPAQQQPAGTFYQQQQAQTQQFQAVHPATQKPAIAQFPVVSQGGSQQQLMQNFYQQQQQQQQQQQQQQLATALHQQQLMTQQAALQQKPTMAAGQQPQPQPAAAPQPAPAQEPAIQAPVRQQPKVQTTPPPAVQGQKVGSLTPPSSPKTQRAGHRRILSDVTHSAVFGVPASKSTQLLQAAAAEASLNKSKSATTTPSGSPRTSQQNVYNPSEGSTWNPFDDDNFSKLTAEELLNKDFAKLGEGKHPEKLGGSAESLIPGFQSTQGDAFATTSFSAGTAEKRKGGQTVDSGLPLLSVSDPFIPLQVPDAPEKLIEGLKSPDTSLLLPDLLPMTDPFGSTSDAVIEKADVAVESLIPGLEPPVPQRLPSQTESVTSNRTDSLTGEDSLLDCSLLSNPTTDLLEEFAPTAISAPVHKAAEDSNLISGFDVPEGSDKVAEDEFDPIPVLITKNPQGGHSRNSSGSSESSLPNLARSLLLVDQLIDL
Protocol: Compounds were pipetted at various concentrations using an Echo acoustic dispenser (Labcyte), immediately followed by Tracer K10 (Promega, Tracer DB ID: T000008) for AAK1 and Aurora A and VHL Tracer (Promega, Tracer DB ID: T000019) for VHL, at an optimum KD concentration chosen from TracerDB ( tracerdb.org), respectively.
To measure the BRET signal, the NanoBRET® NanoGlo Substrate (Promega:
N1573) was added as per the manufacturer’s protocol, and filtered luminescence was measured on a PHERAstar plate reader (BMG Labtech) equipped with a luminescence filter pair (450 nm BP filter (donor) and 610 nm LP filter (acceptor)). For NanoBRET® measurement in permeabilized cells, 25 nL of digitonin (0.05 μg/μL) was pipetted into each well using an
After incubation, the BRET signals were measured by a PHERAstar plate reader (BMG Labtech) following the same procedure as intact NanoBRET® measurement. Competitive displacement data were then normalized to controls and were plotted using GraphPad Prism 9 software employing a normalized 3-parameter curve fit with the following equation:

T5 sequence (A0A096LP01 whole entry): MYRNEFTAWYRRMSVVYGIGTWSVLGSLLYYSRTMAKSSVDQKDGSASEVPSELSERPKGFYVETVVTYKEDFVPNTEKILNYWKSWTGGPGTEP
T2 sequence (Q15375 590-899): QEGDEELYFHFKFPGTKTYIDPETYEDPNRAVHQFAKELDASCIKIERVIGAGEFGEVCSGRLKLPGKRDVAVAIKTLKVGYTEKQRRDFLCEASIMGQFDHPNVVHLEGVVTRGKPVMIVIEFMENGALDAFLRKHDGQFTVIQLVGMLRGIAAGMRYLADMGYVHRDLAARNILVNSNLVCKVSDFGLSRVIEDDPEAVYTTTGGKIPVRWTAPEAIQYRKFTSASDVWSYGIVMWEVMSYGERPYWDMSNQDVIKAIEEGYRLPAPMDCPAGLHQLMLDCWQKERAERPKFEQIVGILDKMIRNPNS
T3 sequence (P11362 456-767): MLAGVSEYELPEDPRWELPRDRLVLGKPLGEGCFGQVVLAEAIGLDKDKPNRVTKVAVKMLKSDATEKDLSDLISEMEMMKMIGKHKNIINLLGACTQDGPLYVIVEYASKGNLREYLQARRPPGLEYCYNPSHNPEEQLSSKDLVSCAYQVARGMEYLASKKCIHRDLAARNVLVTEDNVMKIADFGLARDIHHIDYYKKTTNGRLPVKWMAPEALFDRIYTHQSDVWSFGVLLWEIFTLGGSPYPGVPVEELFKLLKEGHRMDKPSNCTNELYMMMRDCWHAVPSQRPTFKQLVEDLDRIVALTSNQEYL

ΔTm at 20 µM (EPHA2A): 6.12 °C
ΔTm at 20 µM (EPHA7A): 3.39 °C
ΔTm at 20 µM (FGFR1B): 5.22 °C
ΔTm at 20 µM (VRK1A): 0.7 °C
P.Value (compound/DMSO) ([1]; MCF7, 2.5 µM, set3): 0.03457
log2FC (compound/DMSO) ([1]; MCF7, 2.5 µM, set3): -0.4501
P.Value (compound/DMSO) ([1]; MCF, 0.25µM, set4): 0.002655
log2FC (compound/DMSO) ([1]; MCF, 0.25µM, set4): 0.2815
IC50 (full-length AAK1; AAK1 intact (IC50±sd)/μM, intact cells, ^a values estimated by extrapolation): 0.012 ± 0.002 µM
IC50 (full-length AAK1; AAK1 permeabilized (IC50±sd)/μM, permeabilized cells): 0.015 ± 0.002 µM
SMILES: CCOC(=O)c1cc(Nc2cc(C3CC3)[nH]n2)nc(Nc2ccc(CC#N)cc2)n1 [compound 5]
kinase downregulation profile compared with Jurkat cells ([2]; MCF-7 cells, 0.25 μM, 6 h): comparable downregulation profiles
log2FC (compound/DMSO) ([2]; protein NBPF19;NBPF8;NBPF10;NBPF15;NBPF26;NBPF14;NBPF1;NBPF12, MCF, 0.25µM, set4): 0.03286
log2FC (compound/DMSO) ([2]; protein NBPF19;NBPF8;NBPF26;NBPF14;NBPF12;NBPF10;NBPF15;NBPF1, MCF7, 2.5 µM, set3): -0.1342
log2FC (compound/DMSO) ([2]; protein NUDT4;NUDT11;NUDT10, MCF, 0.25µM, set4): 0.03432
log2FC (compound/DMSO) ([2]; protein UQCRHL;UQCRH, MCF, 0.25µM, set4): 0.1631
